Results: the CheMixHub viscosity set

Test: xn = mol fraction of the nth substance listed

OCCCl + CCOC(C)=O
viscosity [mPa·s], 101.33 kPa
Settings | x1 = 0.1033 | x1 = 0.2006 | x1 = 0.3231 | x1 = 0.4048 | x1 = 0.5015 | x1 = 0.6007 | x1 = 0.7022 | x1 = 0.8 | x1 = 0.9
298.15 K | 0.485 | 0.542 | 0.643 | 0.729 | 0.864 | 1.065 | 1.326 | 1.689 | 2.242
303.15 K | 0.454 | 0.51 | 0.601 | 0.679 | 0.8 | 0.967 | 1.2 | 1.517 | 1.98
308.15 K | 0.43 | 0.482 | 0.565 | 0.635 | 0.746 | 0.894 | 1.098 | 1.369 | 1.776

NC=O + CN(C)C=O
298.15 K, 101.3 kPa
Settings | viscosity [mPa·s]
x1 = 0.1 | 1.041
x1 = 0.2 | 1.27
x1 = 0.3 | 1.472
x1 = 0.4 | 1.698
x1 = 0.5 | 1.939
x1 = 0.6 | 2.198
x1 = 0.7 | 2.483
x1 = 0.8 | 2.817
x1 = 0.9 | 3.191

OCCCO + CN(C)C=O
308.15 K, 101 kPa
Settings | viscosity [mPa·s]
x1 = 0.0229 | 0.76
x1 = 0.0468 | 0.834
x1 = 0.0914 | 0.904
x1 = 0.2048 | 1.267
x1 = 0.3032 | 1.748
x1 = 0.397 | 2.4
x1 = 0.4994 | 3.516
x1 = 0.597 | 5.056
x1 = 0.699 | 7.606
x1 = 0.7983 | 11.93
x1 = 0.9001 | 17.75
x1 = 0.9477 | 20.44

CCCC(O)CC (stereo not given) + CO
298.15 K, 101.33 kPa
Settings | viscosity [mPa·s]
x2 = 0.1014 | 4.298
x2 = 0.2029 | 3.945
x2 = 0.3111 | 3.363
x2 = 0.4188 | 2.737
x2 = 0.503 | 2.278
x2 = 0.6078 | 1.758
x2 = 0.7072 | 1.383
x2 = 0.7994 | 1.054
x2 = 0.9014 | 0.7655

OCCCl + CO
viscosity [mPa·s], 101.33 kPa
Settings | x1 = 0.096 | x1 = 0.2122 | x1 = 0.2939 | x1 = 0.3927 | x1 = 0.4944 | x1 = 0.598 | x1 = 0.6969 | x1 = 0.7977 | x1 = 0.8997
298.15 K | 0.615 | 0.777 | 0.91 | 1.099 | 1.321 | 1.591 | 1.869 | 2.13 | 2.45
303.15 K | 0.572 | 0.721 | 0.834 | 1.003 | 1.195 | 1.434 | 1.632 | 1.884 | 2.14
308.15 K | 0.529 | 0.662 | 0.767 | 0.913 | 1.084 | 1.287 | 1.456 | 1.675 | 1.89

OCCCl + COC(C)=O
viscosity [mPa·s], 101.33 kPa
Settings | x1 = 0.1021 | x1 = 0.2013 | x1 = 0.3049 | x1 = 0.4029 | x1 = 0.5056 | x1 = 0.6047 | x1 = 0.7046 | x1 = 0.7987 | x1 = 0.9014
298.15 K | 0.438 | 0.501 | 0.587 | 0.691 | 0.844 | 1.039 | 1.324 | 1.688 | 2.234
303.15 K | 0.414 | 0.472 | 0.555 | 0.645 | 0.787 | 0.954 | 1.197 | 1.518 | 1.978
308.15 K | 0.392 | 0.447 | 0.519 | 0.606 | 0.726 | 0.881 | 1.094 | 1.369 | 1.762

NC=O + COCCO
101 kPa
Settings | viscosity [mPa·s]
303 K, x1 = 0.1585 | 1.679
303 K, x1 = 0.4194 | 2.286
303 K, x1 = 0.5295 | 2.443
303 K, x1 = 0.6283 | 2.625
303 K, x1 = 0.717 | 2.859
303 K, x1 = 0.8711 | 2.837
303 K, x1 = 0.9381 | 2.945
303.15 K, x1 = 0.1785 | 1.795
313 K, x1 = 0.2971 | 1.632
313 K, x1 = 0.4194 | 1.841
313 K, x1 = 0.5295 | 1.958
313 K, x1 = 0.6283 | 2.067
313 K, x1 = 0.717 | 2.223
313 K, x1 = 0.7978 | 2.339
313 K, x1 = 0.8711 | 2.226
318.15 K, x1 = 0.5726 | 1.885

O[C@@H]1CO[C@H]2[C@@H]1OC[C@@H]2O + C[N+](C)(C)CC(=O)[O-]
Settings | viscosity [mPa·s]
298.15 K, 101.33 kPa, x1 = 0.7 | 513.3

OCCCO + C[N+](C)(C)CCO.[Cl-]
viscosity [mPa·s], 101.3 kPa
Settings | 293.15 K | 298.15 K | 298.2 K | 303.15 K | 308.15 K | 308.2 K | 313.15 K | 318.15 K | 318.2 K | 323.15 K
x1 = 0.7509 | 69.74 | 55.76 | – | 45.4 | 37.43 | – | 31.35 | 26.52 | – | 22.62
x1 = 0.8001 | 61.31 | 49.49 | – | 40.7 | 33.88 | – | 27.31 | 23.03 | – | 19.63
x1 = 0.8328 | 57.14 | 46.14 | – | 37.62 | 30.92 | – | 25.67 | 21.53 | – | 18.26
x1 = 0.8567 | 53.95 | 42.83 | – | 34.73 | 28.58 | – | 24.01 | 20.38 | – | 17.26
x2 = 0.1667 | – | – | 49.5 | – | – | 36.9 | – | – | 27.6 | –
x2 = 0.2 | – | – | – | 34.45 | 28.87 | – | 24.21 | 20.52 | – | 17.57
x2 = 0.25 | – | – | – | 40.05 | 33.17 | – | 27.84 | 23.62 | – | 20.25

CCN(CC)CC(=O)Nc1c(C)cccc1C + Cc1ccc(C(C)C)c(O)c1
100 kPa, x2 = 0.5
Settings | viscosity [mPa·s]
293.15 K | 177.3
298.15 K | 111.3
303.15 K | 73.71
308.15 K | 51.05
313.15 K | 36.76
318.15 K | 27.36
323.15 K | 20.98

Cc1cccc(C(C)C)c1 + Cc1ccc(C(C)C)cc1
101 kPa, x2 = 0.4
Settings | viscosity [mPa·s]
293.15 K | 0.8
313.15 K | 0.72

CC(C)C#N + Cc1ccc(C)cc1
viscosity [mPa·s], 101 kPa
Settings | x2 = 0.1003 | x2 = 0.2009 | x2 = 0.3014 | x2 = 0.4041 | x2 = 0.4978 | x2 = 0.6013 | x2 = 0.7001 | x2 = 0.8003 | x2 = 0.8998
303.15 K | 0.474 | 0.482 | 0.484 | 0.498 | 0.505 | 0.519 | 0.531 | 0.55 | 0.558
308.15 K | 0.444 | 0.453 | 0.453 | 0.461 | 0.473 | 0.485 | 0.495 | 0.507 | 0.519

CC(C)C#N + Cc1ccccc1
viscosity [mPa·s], 101 kPa
Settings | x2 = 0.1025 | x2 = 0.2009 | x2 = 0.2987 | x2 = 0.4001 | x2 = 0.4983 | x2 = 0.6008 | x2 = 0.6993 | x2 = 0.801 | x2 = 0.8983
303.15 K | 0.463 | 0.465 | 0.468 | 0.474 | 0.481 | 0.49 | 0.499 | 0.509 | 0.517
308.15 K | 0.434 | 0.437 | 0.439 | 0.445 | 0.45 | 0.46 | 0.468 | 0.478 | 0.486

OCCCl + Cc1ccccc1N
viscosity [mPa·s], 100 kPa
Settings | x2 = 0.1141 | x2 = 0.2148 | x2 = 0.3201 | x2 = 0.4123 | x2 = 0.5121 | x2 = 0.6225 | x2 = 0.7112 | x2 = 0.8184 | x2 = 0.9017
303.15 K | 2.67 | 2.744 | 2.82 | 2.884 | 2.953 | 3.026 | 3.084 | 3.151 | 3.202
308.15 K | 2.312 | 2.378 | 2.445 | 2.502 | 2.562 | 2.626 | 2.676 | 2.734 | 2.777
313.15 K | 1.963 | 2.031 | 2.099 | 2.157 | 2.219 | 2.285 | 2.337 | 2.396 | 2.44
318.15 K | 1.645 | 1.711 | 1.777 | 1.834 | 1.893 | 1.958 | 2.008 | 2.067 | 2.108
